# Reference: ChEMBL document CHEMBL3817834, “Scaffold morphing leading to evolution of 2,4-diaminoquinolines and aminopyrazolopyrimidines as inhibitors of the ATP synthesis pathway” (Medchemcomm, 2016)
# How the values were obtained:
# Assay type in all cases: functional
# [1] = test system: Mycobacterium tuberculosis; experiment: Antimycobacterial activity against rifampicin resistant Mycobacterium tuberculosis isolate 19000 by turbidometric method
# [2] = test system: Mycobacterium tuberculosis; experiment: Antimycobacterial activity against ofloxacin resistant Mycobacterium tuberculosis isolate 12119 by turbidometric method
# [3] = test system: Mycobacterium tuberculosis; experiment: Antimycobacterial activity against bedaquiline resistant Mycobacterium tuberculosis harboring I66M mutant by turbidometric method
# [4] = test system: Mycobacterium tuberculosis; experiment: Antimycobacterial activity against bedaquiline resistant Mycobacterium tuberculosis harboring A63P mutant by turbidometric method
# [5] = test system: Mycobacterium tuberculosis; experiment: Antimycobacterial activity against ethambutol resistant Mycobacterium tuberculosis isolate 17003 by turbidometric method
# [6] = test system: Mycobacterium tuberculosis; experiment: Antimycobacterial activity against isoniazid resistant Mycobacterium tuberculosis isolate 35822 by turbidometric method
# [7] = test system: Mycobacterium tuberculosis; experiment: Antimycobacterial activity against streptomycin resistant Mycobacterium tuberculosis isolate 35820 by turbidometric method
Structure (SMILES),MIC80 [1] [µM],MIC80 [2] [µM],MIC=>80 [3] [µM],MIC=>80 [4] [µM],MIC80 [5] [µM],MIC80 [6] [µM],MIC80 [7] [µM]
CN(C)CCOc1ncc(Nc2cc(-c3ccccc3)nc3cc(-c4ccc(F)cc4)nn23)cc1F,6.3,12.5,6.3,12.5,6.3,12.5,25
CN(C)CCOc1ncc(Nc2cc(-c3ccccc3)nc3cc(-c4ccc(F)cc4)[nH]c23)cc1F,3.1,25,3.1,3.1,6.3,3.1,25
COc1cc2nc(N3CCC(c4ccccc4Cl)C3)cc(Nc3cnc(OCCN(C)C)c(F)c3)c2cc1OC (stereo not given),3.1,12.5,6.3,3.1,6.3,6.3,12.5
CN(C)CCOc1ncc(Nc2cc(N3CCC(c4ccccc4Cl)C3)nc3cc(F)c(F)cc23)cc1F (stereo not given),3.1,25,3.1,3.1,6.3,3.1,25
COc1nc2ccc(Br)cc2cc1[C@@H](c1ccccc1)[C@@](O)(CCN(C)C)c1cccc2ccccc12 [BEDAQUILINE],< 2,< 2,10,>10,< 2,< 2,< 2
CC[C@@H](CO)NCCN[C@@H](CC)CO [ETHAMBUTOL],9.8,4.9,9.8,9.8,> 20,9.8,9.8
NNC(=O)c1ccncc1 [ISONIAZID],0.2,0.2,0.2,0.2,0.2,> 15,0.2
CC1COc2c(N3CCN(C)CC3)c(F)cc3c(=O)c(C(=O)O)cn1c23 (stereo not given) [OFLOXACIN],0.7,> 5.6,0.7,0.7,0.3,0.7,0.7
CO[C@H]1/C=C/O[C@@]2(C)Oc3c(C)c(O)c4c(O)c(c(/C=N/N5CCN(C)CC5)c(O)c4c3C2=O)NC(=O)/C(C)=C\C=C\[C@H](C)[C@H](O)[C@@H](C)[C@@H](O)[C@@H](C)[C@H](OC(C)=O)[C@@H]1C [RIFAMPIN],> 1.2,0.04,0.04,0.04,0.04,0.04,0.04
CN[C@@H]1[C@H](O[C@H]2[C@H](O[C@H]3[C@H](O)[C@@H](O)[C@H](N=C(N)N)[C@@H](O)[C@@H]3N=C(N)N)O[C@@H](C)[C@]2(O)C=O)O[C@@H](CO)[C@H](O)[C@H]1O [STREPTOMYCIN],0.3,0.3,0.3,0.3,0.3,0.3,> 11
